From ChEMBL document CHEMBL3526078, “Pharmacokinetics and hepatic uptake of eltrombopag, a novel platelet-increasing agent” (Drug Metab Dispos, 2011)
Values after ≈ are worked out from the molar mass of the structure shown.

Key:
[1] = Total clearance in bile-duct cannulated Sprague-Dawley rat at 1 mg/kg, iv in presence of 20 mg/kg rifampicin (reference value: 34.3 +/- 3.9 ml/h/kg); format: ADME, organism-based; details: in vivo
[2] = Volume of distribution at steady state in Sprague-Dawley rat at 1 mg/kg, iv; format: ADME, organism-based; parameters: dose 1 mg/kg, route intravenous; details: in vivo, read-out: Vdss
[3] = Clearance in Sprague-Dawley rat urine at 1 mg/kg, iv; format: ADME, organism-based; parameters: dose 1 mg/kg, route intravenous
[4] = Distribution volume to the central compartment in Sprague-Dawley rat urine at 1 mg/kg, iv; format: ADME, organism-based; parameters: dose 1 mg/kg, route intravenous; details: read-out: Vc
[5] = Total clearance in Sprague-Dawley rat at 1 mg/kg, iv; format: ADME, organism-based; parameters: dose 1 mg/kg, route intravenous; details: in vivo
Hepatocyte [6] = experiment: Drug uptake in mouse hepatocytes at 37 degC up to 5 mins; format: ADME, cell-based
Hepatocyte [7] = experiment: Drug uptake in mouse hepatocytes at 4 degC; format: ADME, cell-based
[8] = Solubility of the compound; format: physicochemical
Hepatocyte [9] = experiment: Drug uptake in mouse hepatocytes at pH 7.4; format: ADME, cell-based
Hepatocyte [10] = experiment: Drug uptake in mouse hepatocytes at pH 6.5; format: ADME, cell-based
Hepatocyte [11] = experiment: Drug uptake in mouse hepatocytes at pH 5.5; format: ADME, cell-based
Hepatocyte [12] = experiment: Drug uptake in mouse hepatocytes in absence of Na+; format: ADME, cell-based
Hepatocyte [13] = experiment: Drug uptake in mouse hepatocytes in absence of Cl-; format: ADME, cell-based
Hepatocyte [14] = experiment: Drug uptake in mouse hepatocytes in presence of rotenone ATP depletor; format: ADME, cell-based
Hepatocyte [15] = experiment: Drug uptake in mouse hepatocytes in presence of carbonyl cyanide-para-trifluoromethoxyphenylhydrazone ATP depletor; format: ADME, cell-based
Hepatocyte [16] = experiment: Drug uptake in mouse hepatocytes in presence of taurocholate OATP inhibitor; format: ADME, cell-based
Hepatocyte [17] = experiment: Drug uptake in mouse hepatocytes in presence of rifampicin OATP inhibitor; format: ADME, cell-based
Hepatocyte [18] = experiment: Drug uptake in mouse hepatocytes in presence of tetraethylammonium; format: ADME, cell-based
Hepatocyte [19] = experiment: Drug uptake in mouse hepatocytes in presence of TPeA; format: ADME, cell-based
Hepatocyte [20] = experiment: Drug uptake in mouse hepatocytes in presence of quinidine; format: ADME, cell-based
Hepatocyte [21] = experiment: Drug uptake in mouse hepatocytes in presence of verapamil; format: ADME, cell-based
Hepatocyte [22] = experiment: Drug uptake in mouse hepatocytes in presence of GABA; format: ADME, cell-based
Hepatocyte [23] = experiment: Drug uptake in mouse hepatocytes in presence of phenylalanine; format: ADME, cell-based

With CC1=NN(c2ccc(C)c(C)c2)C(=O)/C1=N\Nc1cccc(-c2cccc(C(=O)O)c2)c1O [ELTROMBOPAG] the clearance [1] was 0.335 mL/min/kg, the Vd [2] was 0.287 L/kg and the CL renal [3] was less than 1.68 mL/day/kg. The Vd [4] was 0.0411 L/kg, the clearance [5] was 0.55 mL/min/kg and the Drug uptake (Hepatocyte [6]) was “Active”. The Drug uptake (Hepatocyte [7]) was “Not Active”, the solubility [8] was 200 µM (≈ 88.5 µg/mL) and the Drug uptake (Hepatocyte [9]) was “Active”. The Drug uptake (Hepatocyte [10]) was “Active”, the Drug uptake (Hepatocyte [11]) was “Active” and the Drug uptake (Hepatocyte [12]) was “Active”. The Drug uptake (Hepatocyte [13]) was “Active”, the Drug uptake (Hepatocyte [14]) was “Not Active” and the Drug uptake (Hepatocyte [15]) was “Not Active”. For the same molecule, the Drug uptake (Hepatocyte [16]) was “Not Active”, the Drug uptake (Hepatocyte [17]) was “Not Active” and the Drug uptake (Hepatocyte [18]) was “Not Active”. The Drug uptake (Hepatocyte [19]) was “Not Active”, the Drug uptake (Hepatocyte [20]) was “Not Active” and the Drug uptake (Hepatocyte [21]) was “Not Active”. The Drug uptake (Hepatocyte [22]) was “Not Active” and the Drug uptake (Hepatocyte [23]) was “Not Active”.
